Results on 2 compounds are retold here after patent publication US4474780A, “Crystalline cephalosporin” (Eli Lilly and Company, priority 1983, dated 1984).

The structures appear in SMILES notation. Like-named read-outs stand apart in the source and are kept apart here.

For data set [1] the following is noted: background statement; cited from earlier work.
For data set [2], the system named is gram positive. The settings on record: background statement; cited from earlier work.
The conditions of data set [3]: background statement; cited from earlier work. The source holds these as a separate data set.
Data set [4] is described as follows: Solubility (saturated solution in water at 37° C.). The settings on record: for solubility: water, 37° C. Format: physicochemical. The protocol: For example, the compound forms a saturated solution in water at 37° C. according to the following table: […]
Data set [5] is described as follows: Titration (66% N,N-dimethylformamide/water). Format: physicochemical. Conditions: 66% dmf/water. The text has this:
Titration (66% N,N-dimethylformamide/water) pKa 5.5, 7.5, 11.2.

Data set [6] is described as follows: Stability of the crystal form. Format: physicochemical. Conditions: prolonged periods of time.
Data set [7] is described as follows: Absorption following oral administration. Format: in vivo.
Data set [8] in a line: Pharmacokinetics. Format: in vivo. Conditions: in words; tetrahydrate, oral.
Data set [9] has as its system Peptostreptococcus anaerobius. Nature of the data set: Activity against anaerobic cocci.
Data set [10] deals with Peptostrept. intermedius. Kind of data set: Activity against anaerobic cocci.

As to `CC1=C(C(=O)O)N2C(=O)C(NC(=O)[C@H](N)c3ccc4ccccc4c3)C2SC1` (stereo partly drawn) [7-(D-2-Naphthylglycylamido)-3-methyl-3-cephem-4-carboxylic acid], the pharmacokinetics result in data set [1] was “favorable pharmacokinetics”. Moreover, the gram positive activity result in data set [2] is given as “excellent gram positive activity”. Also, the orally active antibiotic result in data set [3] is “potent orally active antibiotic”.

One may read the solubility as the concentration that dissolves in the medium under given conditions. High values mean a readily soluble substance, low ones a poorly soluble substance. A word on the pKa: it is the negative logarithm of the acid dissociation constant. The low end stands for a group that gives up its proton readily, the high end for a group that holds its proton tightly. Regarding `CC1=C(C(=O)O)N2C(=O)C(NC(=O)[C@H](N)c3ccc4ccccc4c3)C2SC1` (stereo partly drawn) [7-(D-2-naphthylglycylamido)-3-methyl-3-cephem-4-carboxylic acid tetrahydrate], the solubility in water result in data set [4] (in words) is “only minimally soluble in water”. Further, the solubility in [4] (pH 1.2) amounted to 8600 µg/mL; in data set [4] (pH 2.0) it was 1700 µg/mL; in [4] (pH 3.0), 200 µg/mL; in data set [4] (pH 4.0), 200 µg/mL; in data set [4] (pH 5.0), 200 µg/mL; in data set [4] (pH 6.0), 300 µg/mL. For the same compound, the solubility was 800 µg/mL in [4] (pH 7.0), 1200 µg/mL in data set [4] (pH 7.5), 4100 µg/mL in data set [4] (pH 8.0) and 7500 µg/mL in data set [4] (pH 8.5). The pKa came out at 5.5 in [5] (first value), 7.5 in data set [5] (second value) and 11.2 in data set [5] (third value). The stability result in data set [6] is listed as “very stable for prolonged periods of time”. Moreover, the “absorption following oral administration” value in data set [7] is listed as “very well absorbed following oral administration”. In addition, the pharmacokinetics entry in [8] is listed as “favorable pharmacokinetics”. In addition, the “effective against anaerobic cocci” value in data set [9] and in [10] was “effective” throughout.
